In ChEMBL document CHEMBL5154652, “Design, synthesis and anti-hepatocellular carcinoma activity of 3-arylisoquinoline alkaloids” (Eur J Med Chem, 2022):
Active and inactive are the calls of the source. The rule behind the calls is not given here.

How the values were obtained:
[1] = Half-life in male Sprague-Dawley rat at 100 mg/kg, ip; type: ADME, organism-based; settings: in vivo
Huh-7 [2] = assay: Induction of apoptosis in human Huh-7 cells at 5 to 20 uM measured by Annexin V /propidium iodide staining method; type: functional, cell-based; settings: dose 5-20 µM
A549 = assay: Antiproliferative activity against human A549 cells after 72 hrs by MTT assay; type: functional, cell-based; settings: A549, 72 h
HCCLM9 [3] = assay: Inhibition of cell migration in human HCCLM9 cells at 1.25 to 5 uM after 24 hrs by transwell assay; type: functional, cell-based; settings: dose 1.25-5 µM
HCT-116 = assay: Antiproliferative activity against human HCT-116 cells after 72 hrs by MTT assay; type: functional, cell-based; settings: HCT-116, 72 h
U-251 = assay: Antiproliferative activity against human U-251 cells after 72 hrs by MTT assay; type: functional, cell-based; settings: U-251, 72 h
HCCLM9 [4] = assay: Induction of apoptosis in human HCCLM9 cells assessed as increase in cleaved caspase-9 expression at 3.75 to 15 uM; type: functional, cell-based; settings: dose 3.75-15 µM
Huh-7 [5] = assay: Induction of cell cycle arrest in human Huh-7 cells assessed as increase in cell accumulation at G2/M phase at 5 to 20 uM measured after 48 hrs by flow cytometry analysis; type: functional, cell-based; settings: dose 5-20 µM
SW480 = assay: Antiproliferative activity against human SW480 cells after 72 hrs by MTT assay; type: functional, cell-based; settings: SW480, 72 h
Huh-7 [6] = assay: Induction of cell cycle arrest in human Huh-7 cells assessed as decrease in cell accumulation at G0/G1 phase at 5 to 20 uM measured after 48 hrs by flow cytometry analysis; type: functional, cell-based; settings: dose 5-20 µM
Huh-7 [7] = assay: Induction of mitochondrial apoptosis in human Huh-7 cells assessed as inhibition of p-PI3K levels at 5 to 20 uM measured after 48 hrs by Western blot analysis; type: functional, cell-based; settings: dose 5-20 µM
Huh-7 [8] = assay: Inhibition of cell migration in human Huh-7 cells at 2 to 8 uM after 24 hrs by transwell assay; type: functional, cell-based; settings: dose 2-8 µM
[9] = Observed apparent oral clearance in male Sprague-Dawley rat at 100 mg/kg, ip; type: ADME, organism-based; settings: in vivo
HCCLM9 [10] = assay: Induction of apoptosis in human HCCLM9 cells assessed as increase in cytochrome C expression at 3.75 to 15 uM; type: functional, cell-based; settings: dose 3.75-15 µM
Huh-7 [11] = assay: Induction of mitochondrial apoptosis in human Huh-7 cells assessed as inhibition of p-mTOR levels at 5 to 20 uM measured after 48 hrs by Western blot analysis; type: functional, cell-based; settings: dose 5-20 µM
HCCLM9 [12] = assay: Induction of cell cycle arrest in human HCCLM9 cells assessed as decrease in cell accumulation at G0/G1 phase at 3.75 to 15 uM measured after 48 hrs by flow cytometry analysis; type: functional, cell-based; settings: dose 3.75-15 µM
[13] = Tmax in male Sprague-Dawley rat at 100 mg/kg, ip; type: ADME, organism-based; settings: in vivo
HT-29 = assay: Antiproliferative activity against human HT-29 cells after 72 hrs by MTT assay; type: functional, cell-based; settings: HT-29, 72 h
Huh-7 [14] = assay: Induction of apoptosis in human Huh-7 cells assessed as increase in cleaved caspase-3 expression at 5 to 20 uM; type: functional, cell-based; settings: dose 5-20 µM
HCCLM9 [15] = assay: Induction of apoptosis in human HCCLM9 cells assessed as reduction in Bcl-2 expression at 3.75 to 15 uM; type: functional, cell-based; settings: dose 3.75-15 µM
HCCLM9 [16] = assay: Antiproliferative activity against human HCCLM9 cells at 1.25 to 5 uM after 24 hrs by EdU incorporation assay; type: functional, cell-based; settings: dose 1.25-5 µM
HCCLM9 [17] = assay: Induction of apoptosis in human HCCLM9 cells at 3.5 to 14 uM measured by Annexin V /propidium iodide staining method; type: functional, cell-based; settings: dose 3.5-14 µM
Huh-7 [18] = assay: Induction of cell cycle arrest in human Huh-7 cells assessed as decrease in cell accumulation at S phase at 5 to 20 uM measured after 48 hrs by flow cytometry analysis; type: functional, cell-based; settings: dose 5-20 µM
Huh-7 [19] = assay: Induction of apoptosis in human Huh-7 cells assessed as increase in Bax expression at 5 to 20 uM; type: functional, cell-based; settings: dose 5-20 µM
Huh-7 [20] = assay: Induction of mitochondrial dysfunction in human Huh-7 cells assessed as decrease in MMP levels at 5 to 20 uM; type: functional, cell-based; settings: dose 5-20 µM
L02 = assay: Antiproliferative activity against human L02 cells after 72 hrs by MTT assay; type: functional, cell-based; settings: L02, 72 h
Huh-7 [21] = assay: Antiproliferative activity against human Huh-7 cells after 72 hrs by MTT assay; type: functional, cell-based; settings: Huh-7, 72 h
Huh-7 [22] = assay: Inhibition of MMP-9 expression in human Huh-7 cells at 5 to 20 uM measured by western blot analysis; type: functional, cell-based; settings: dose 5-20 µM
MDA-MB-231 = assay: Antiproliferative activity against human MDA-MB-231 cells after 72 hrs by MTT assay; type: functional, cell-based; settings: MDA-MB-231, 72 h
[23] = biological target: DNA topoisomerase 2-alpha (Homo sapiens) (UniProt P11388); assay: Inhibition of DNA topoisomerase 2 (unknown origin) at 25 uM measured by agar gel electrophoresis relative to control
Chain of DNA topoisomerase 2-alpha (Homo sapiens) (P11388 whole entry): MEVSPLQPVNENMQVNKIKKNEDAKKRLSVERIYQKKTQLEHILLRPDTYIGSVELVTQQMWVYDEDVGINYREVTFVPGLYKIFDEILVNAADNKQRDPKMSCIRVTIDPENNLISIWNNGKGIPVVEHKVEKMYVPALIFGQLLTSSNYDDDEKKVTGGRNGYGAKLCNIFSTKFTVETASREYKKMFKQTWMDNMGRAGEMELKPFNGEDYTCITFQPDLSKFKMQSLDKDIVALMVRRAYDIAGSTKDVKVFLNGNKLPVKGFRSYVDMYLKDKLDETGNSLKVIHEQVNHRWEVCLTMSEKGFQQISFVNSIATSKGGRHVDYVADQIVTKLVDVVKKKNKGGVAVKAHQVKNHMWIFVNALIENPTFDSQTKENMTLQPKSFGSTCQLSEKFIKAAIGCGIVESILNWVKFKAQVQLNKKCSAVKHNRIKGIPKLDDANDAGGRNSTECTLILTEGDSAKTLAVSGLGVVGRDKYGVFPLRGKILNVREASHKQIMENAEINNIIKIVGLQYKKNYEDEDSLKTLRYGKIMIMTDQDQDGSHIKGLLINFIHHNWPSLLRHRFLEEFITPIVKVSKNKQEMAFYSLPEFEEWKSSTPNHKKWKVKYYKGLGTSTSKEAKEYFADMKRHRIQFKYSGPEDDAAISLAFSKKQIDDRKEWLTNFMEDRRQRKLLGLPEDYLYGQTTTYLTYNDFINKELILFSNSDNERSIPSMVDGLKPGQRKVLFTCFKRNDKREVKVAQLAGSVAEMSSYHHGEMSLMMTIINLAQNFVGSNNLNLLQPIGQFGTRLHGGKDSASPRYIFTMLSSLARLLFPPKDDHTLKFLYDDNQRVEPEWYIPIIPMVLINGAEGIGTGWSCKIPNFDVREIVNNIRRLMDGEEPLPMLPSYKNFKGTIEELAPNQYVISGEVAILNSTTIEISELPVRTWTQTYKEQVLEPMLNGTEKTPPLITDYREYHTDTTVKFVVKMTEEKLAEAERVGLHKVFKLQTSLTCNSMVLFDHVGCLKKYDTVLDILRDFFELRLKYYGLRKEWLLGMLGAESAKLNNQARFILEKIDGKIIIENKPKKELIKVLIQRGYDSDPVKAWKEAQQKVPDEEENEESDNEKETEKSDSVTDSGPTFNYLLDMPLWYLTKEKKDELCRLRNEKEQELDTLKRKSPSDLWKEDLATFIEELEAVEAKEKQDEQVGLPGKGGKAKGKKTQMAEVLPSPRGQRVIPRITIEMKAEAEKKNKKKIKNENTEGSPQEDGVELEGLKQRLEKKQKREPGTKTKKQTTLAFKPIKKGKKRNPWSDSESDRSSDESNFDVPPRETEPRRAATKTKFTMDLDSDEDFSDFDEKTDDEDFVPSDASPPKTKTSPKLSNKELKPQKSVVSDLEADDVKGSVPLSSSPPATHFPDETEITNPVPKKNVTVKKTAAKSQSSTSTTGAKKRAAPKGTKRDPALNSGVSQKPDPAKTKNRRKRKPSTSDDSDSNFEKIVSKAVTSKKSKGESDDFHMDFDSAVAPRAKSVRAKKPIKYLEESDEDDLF

HCCLM9 [24] = assay: Induction of apoptosis in human HCCLM9 cells assessed as increase in Bax expression at 3.75 to 15 uM; type: functional, cell-based; settings: dose 3.75-15 µM
[25] = MRT (0 to t)in male Sprague-Dawley rat at 100 mg/kg, ip; type: ADME, organism-based; settings: in vivo
HCCLM9 [26] = assay: Induction of apoptosis in human HCCLM9 cells at 3.5 to 14 uM measured by Hoechst staining method; type: functional, cell-based; settings: dose 3.5-14 µM
[27] = Cmax in male Sprague-Dawley rat at 100 mg/kg, ip; type: ADME, organism-based; set-up: dose 100 mg/kg, route ip; settings: in vivo
HCCLM9 [28] = assay: Induction of mitochondrial dysfunction in human HCCLM9 cells assessed as decrease in MMP levels at 5 to 20 uM; type: functional, cell-based; settings: dose 5-20 µM
[29] = Genotoxicity in human Huh-7 cells assessed as induction of DNA damage at 20 uM by comet assay; type: toxicity, cell-based; settings: huh-7, 20 µM
HCCLM9 [30] = assay: Induction of mitochondrial apoptosis in human HCCLM9 cells assessed as inhibition of p-Akt levels at 3.75 to 15 uM measured after 48 hrs by Western blot analysis; type: functional, cell-based; settings: dose 3.75-15 µM
DNA = assay: Binding affinity to DNA (unknown origin) assessed as DNA intercalation at 100 uM measured by unwinding assay relative to control; type: nucleic-acid assay; settings: Homo sapiens
Huh-7 [31] = assay: Induction of mitochondrial apoptosis in human Huh-7 cells assessed as inhibition of p-Akt levels at 5 to 20 uM measured after 48 hrs by Western blot analysis; type: functional, cell-based; settings: dose 5-20 µM
HCCLM9 [32] = assay: Induction of mitochondrial apoptosis in human HCCLM9 cells assessed as inhibition of p-PI3K levels at 3.75 to 15 uM measured after 48 hrs by Western blot analysis; type: functional, cell-based; settings: dose 3.75-15 µM
[33] = AUC (0 to t) in male Sprague-Dawley rat at 100 mg/kg, ip; type: ADME, organism-based; set-up: dose 100 mg/kg, route ip; settings: in vivo
[34] = Toxicity in male BALB/c nude mouse xenografted with human HCCLM9 cells assessed as effect on body weight at 15 mg/kg, iv administered once a day for 21 days; type: organism-based; settings: in vivo, 504 h, time 21 day
[35] = biological target: DNA topoisomerase 1 (Homo sapiens) (UniProt P11387); assay: Inhibition of DNA topoisomerase 1 (unknown origin) at 25 to 50 uM measured by agar gel electrophoresis relative to control; settings: dose 25-50 µM
Chain of DNA topoisomerase 1 (Homo sapiens) (P11387 whole entry): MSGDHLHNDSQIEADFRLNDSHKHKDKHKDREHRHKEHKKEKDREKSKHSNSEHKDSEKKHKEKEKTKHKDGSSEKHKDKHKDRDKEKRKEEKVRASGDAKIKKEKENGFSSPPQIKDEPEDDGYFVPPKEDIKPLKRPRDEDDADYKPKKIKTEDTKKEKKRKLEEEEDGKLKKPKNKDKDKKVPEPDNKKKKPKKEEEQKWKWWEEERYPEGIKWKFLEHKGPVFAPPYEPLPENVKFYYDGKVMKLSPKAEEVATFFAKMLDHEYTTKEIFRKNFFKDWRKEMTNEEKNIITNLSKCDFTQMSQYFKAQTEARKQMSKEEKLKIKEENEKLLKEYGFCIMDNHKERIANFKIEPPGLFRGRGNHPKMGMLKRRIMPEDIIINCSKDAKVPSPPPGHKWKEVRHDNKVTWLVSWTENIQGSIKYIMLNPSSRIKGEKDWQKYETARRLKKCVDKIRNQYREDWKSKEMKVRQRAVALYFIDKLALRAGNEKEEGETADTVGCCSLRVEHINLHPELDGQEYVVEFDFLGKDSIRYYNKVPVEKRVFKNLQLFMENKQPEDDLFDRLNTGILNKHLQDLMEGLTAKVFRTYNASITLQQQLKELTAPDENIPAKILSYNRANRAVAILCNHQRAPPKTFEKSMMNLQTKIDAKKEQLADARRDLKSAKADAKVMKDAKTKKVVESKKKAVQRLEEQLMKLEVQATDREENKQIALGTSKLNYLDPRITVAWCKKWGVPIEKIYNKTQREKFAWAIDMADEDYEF

HCCLM9 [36] = assay: Induction of apoptosis in human HCCLM9 cells assessed as increase in cleaved caspase-3 expression at 3.75 to 15 uM; type: functional, cell-based; settings: dose 3.75-15 µM

- half-life [1]: 3.73 h
- IC50 (A549): 36.3 µM
- IC50 (HCT-116): 64 µM
- IC50 (U-251): 13.5 µM
- IC50 (SW480): 9.04 µM
- CL/F [9]: 20.42 (mg)/(ug/ml)/hr
- Tmax [13]: 1 h
- IC50 (HT-29): 31 µM
- IC50 (Huh-7 [21]): 9.82 µM
- IC50 (MDA-MB-231): 19.9 µM
- inhibition [23]: Active
- MRT last [25]: 1 h
- Cmax [27]: 8900 ng/mL
- Activity (DNA): Active
- AUC(0-t) [33]: 31600 ng·h/mL
- inhibition [35]: Active
SMILES: CNCc1cc2c(cc1-c1cc3ccc4c(c3cn1)OCO4)OCO2
- Activity (Huh-7 [2]): Active
- inhibition (HCCLM9 [3]): Active
- Activity (HCCLM9 [4]): Active
- Activity (Huh-7 [5]): Active
- Activity (Huh-7 [6]): Active
- Activity (Huh-7 [7]): Active
- inhibition (Huh-7 [8]): Active
- Activity (HCCLM9 [10]): Active
- Activity (Huh-7 [11]): Active
- Activity (HCCLM9 [12]): Active
- Activity (Huh-7 [14]): Active
- Activity (HCCLM9 [15]): Active
- Activity (HCCLM9 [16]): Active
- Activity (HCCLM9 [17]): Active
- Activity (Huh-7 [18]): Active
- Activity (Huh-7 [19]): Active
- Activity (Huh-7 [20]): Active
- IC50 (L02): > 150 µM
- inhibition (Huh-7 [22]): Active
- Activity (HCCLM9 [24]): Active
- Activity (HCCLM9 [26]): Active
- Activity (HCCLM9 [28]): Active
- Activity [29]: Non-Toxic
- Activity (HCCLM9 [30]): Active
- Activity (Huh-7 [31]): Active
- Activity (HCCLM9 [32]): Active
- Activity [34]: Non-Toxic
- Activity (HCCLM9 [36]): Active
